Assay results from PubChem BioAssay (NCI).
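Interpolation was linear, between the two tested concentrations surrounding the appropriate level; five concentrations were tested over 48 hours in 96-well plates. The concentration for 50% growth inhibition is given as GI50. TGI: concentration producing complete growth inhibition.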

How the values were obtained:
Assay in all cases: growth of human tumour cells (NCI), 48 h
OVCAR-3 ovarian = tested on: OVCAR-3 ovarian
M14 melanoma = tested on: M14 melanoma
CAKI-1 renal = tested on: CAKI-1 renal
BT-549 breast = tested on: BT-549 breast
EKVX NSCLC = tested on: EKVX NSCLC
SK-MEL-28 melanoma = tested on: SK-MEL-28 melanoma
KM12 colon = tested on: KM12 colon
UACC-62 melanoma = tested on: UACC-62 melanoma
SNB-75 CNS = tested on: SNB-75 CNS
HOP-62 NSCLC = tested on: HOP-62 NSCLC
SF-295 CNS = tested on: SF-295 CNS
DU-145 prostate = tested on: DU-145 prostate
SR leukemia = tested on: SR leukemia
SN12C renal = tested on: SN12C renal
SNB-19 CNS = tested on: SNB-19 CNS
A498 renal = tested on: A498 renal
UACC-257 melanoma = tested on: UACC-257 melanoma
RXF 393 renal = tested on: RXF 393 renal
NCI-H23 lung = tested on: NCI-H23 lung
MALME-3M melanoma = tested on: MALME-3M melanoma
MOLT-4 leukemia = tested on: MOLT-4 leukemia
OVCAR-8 ovarian = tested on: OVCAR-8 ovarian
SK-MEL-2 melanoma = tested on: SK-MEL-2 melanoma
U251 CNS = tested on: U251 CNS
SK-MEL-5 melanoma = tested on: SK-MEL-5 melanoma
NCI-H460 lung = tested on: NCI-H460 lung
SW-620 colon = tested on: SW-620 colon
HL-60(TB) leukemia = tested on: HL-60(TB) leukemia
MDA-MB-231 breast = tested on: MDA-MB-231 breast
K-562 leukemia = tested on: K-562 leukemia
MCF7 breast = tested on: MCF7 breast
CCRF-CEM leukemia = tested on: CCRF-CEM leukemia
PC-3 prostate = tested on: PC-3 prostate
T-47D breast = tested on: T-47D breast
A549 NSCLC = tested on: A549 NSCLC
COLO 205 colon = tested on: COLO 205 colon
SK-OV-3 ovarian = tested on: SK-OV-3 ovarian
TK-10 renal = tested on: TK-10 renal
OVCAR-5 ovarian = tested on: OVCAR-5 ovarian
MDA-MB-435 = tested on: MDA-MB-435
HS 578T breast = tested on: HS 578T breast
HOP-92 NSCLC = tested on: HOP-92 NSCLC
ACHN renal = tested on: ACHN renal
RPMI-8226 leukemia = tested on: RPMI-8226 leukemia
IGROV1 ovarian = tested on: IGROV1 ovarian
786-0 renal = tested on: 786-0 renal
HCT-116 colon = tested on: HCT-116 colon
HT29 colon = tested on: HT29 colon
HCT-15 colon = tested on: HCT-15 colon
SF-539 CNS = tested on: SF-539 CNS
NCI/ADR-RES ovarian = tested on: NCI/ADR-RES ovarian
OVCAR-4 ovarian = tested on: OVCAR-4 ovarian
UO-31 renal = tested on: UO-31 renal
HCC-2998 colon = tested on: HCC-2998 colon
NCI-H226 lung = tested on: NCI-H226 lung
SF-268 CNS = tested on: SF-268 CNS

`CNC1CCc2c(sc(NC(=O)c3ccc(C(C)(C)C)cc3)c2C(N)=O)C1` (configuration not stated) showed a GI50 (OVCAR-3 ovarian) of 1.92 µM, a TGI (OVCAR-3 ovarian) of 3.99 µM and a GI50 (M14 melanoma) of 1.75 µM. For the same molecule, the TGI (M14 melanoma) was 3.6 µM, the GI50 (CAKI-1 renal) was 1.9 µM and the TGI (CAKI-1 renal) was 3.81 µM. For the same molecule, the GI50 (BT-549 breast) was 1.85 µM, the TGI (BT-549 breast) was 4.67 µM and the GI50 (EKVX NSCLC) was 1.72 µM. It also gave a TGI (EKVX NSCLC) of 4.26 µM, a GI50 (SK-MEL-28 melanoma) of 1.73 µM and a TGI (SK-MEL-28 melanoma) of 3.25 µM. The GI50 (KM12 colon) was 1.89 µM, the TGI (KM12 colon) was 3.61 µM and the GI50 (UACC-62 melanoma) was 1.66 µM. For the same molecule, the TGI (UACC-62 melanoma) was 3.06 µM, the GI50 (SNB-75 CNS) was 2.02 µM and the TGI (SNB-75 CNS) was 5.66 µM. For the same molecule, the GI50 (HOP-62 NSCLC) was 1.55 µM, the TGI (HOP-62 NSCLC) was 3.6 µM and the GI50 (SF-295 CNS) was 1.76 µM. The TGI (SF-295 CNS) was 3.27 µM, the GI50 (DU-145 prostate) was 1.95 µM and the TGI (DU-145 prostate) was 4.03 µM. The GI50 (SR leukemia) was 1.29 µM, the TGI (SR leukemia) was 3.51 µM and the GI50 (SN12C renal) was 2.4 µM. For the same molecule, the TGI (SN12C renal) was 7.34 µM, the GI50 (SNB-19 CNS) was 1.87 µM and the TGI (SNB-19 CNS) was 3.64 µM. The GI50 (A498 renal) was 1.48 µM, the TGI (A498 renal) was 4.28 µM and the GI50 (UACC-257 melanoma) was 1.92 µM. It also gave a TGI (UACC-257 melanoma) of 4.43 µM, a GI50 (RXF 393 renal) of 1.42 µM and a TGI (RXF 393 renal) of 2.81 µM. The GI50 (NCI-H23 lung) was 1.67 µM, the TGI (NCI-H23 lung) was 3.62 µM and the GI50 (MALME-3M melanoma) was 1.63 µM. It also gave a TGI (MALME-3M melanoma) of 3.26 µM, a GI50 (MOLT-4 leukemia) of 1.74 µM and a TGI (MOLT-4 leukemia) of 4.09 µM. The GI50 (OVCAR-8 ovarian) was 2.66 µM, the TGI (OVCAR-8 ovarian) was 6.93 µM and the GI50 (SK-MEL-2 melanoma) was 2 µM. The TGI (SK-MEL-2 melanoma) was 4.1 µM, the GI50 (U251 CNS) was 1.81 µM and the TGI (U251 CNS) was 3.79 µM. For the same molecule, the GI50 (SK-MEL-5 melanoma) was 1.7 µM, the TGI (SK-MEL-5 melanoma) was 3.08 µM and the GI50 (NCI-H460 lung) was 1.63 µM. The TGI (NCI-H460 lung) was 3.33 µM, the GI50 (SW-620 colon) was 1.91 µM and the TGI (SW-620 colon) was 3.66 µM. For the same molecule, the GI50 (HL-60(TB) leukemia) was 0.634 µM, the TGI (HL-60(TB) leukemia) was 2.36 µM and the GI50 (MDA-MB-231 breast) was 1.61 µM. The TGI (MDA-MB-231 breast) was 2.97 µM, the GI50 (K-562 leukemia) was 1.32 µM and the TGI (K-562 leukemia) was 3.34 µM. For the same molecule, the GI50 (MCF7 breast) was 1.65 µM, the TGI (MCF7 breast) was 3.53 µM and the GI50 (CCRF-CEM leukemia) was 1.52 µM. The TGI (CCRF-CEM leukemia) was 4.85 µM, the GI50 (PC-3 prostate) was 1.73 µM and the TGI (PC-3 prostate) was 4.02 µM. The GI50 (T-47D breast) was 2.06 µM, the TGI (T-47D breast) was 5.59 µM and the GI50 (A549 NSCLC) was 2.09 µM. For the same molecule, the TGI (A549 NSCLC) was 4.46 µM, the GI50 (COLO 205 colon) was 1.73 µM and the TGI (COLO 205 colon) was 3.54 µM. It also gave a GI50 (SK-OV-3 ovarian) of 2.35 µM, a TGI (SK-OV-3 ovarian) of 6.14 µM and a GI50 (TK-10 renal) of 2 µM. It also gave a TGI (TK-10 renal) of 3.76 µM, a GI50 (OVCAR-5 ovarian) of 2 µM and a TGI (OVCAR-5 ovarian) of 4.39 µM. For the same molecule, the GI50 (MDA-MB-435) was 1.75 µM, the TGI (MDA-MB-435) was 3.4 µM and the GI50 (HS 578T breast) was 2.15 µM. The TGI (HS 578T breast) was 5.43 µM, the GI50 (HOP-92 NSCLC) was 0.944 µM and the TGI (HOP-92 NSCLC) was 5.04 µM. The GI50 (ACHN renal) was 2.01 µM, the TGI (ACHN renal) was 4.23 µM and the GI50 (RPMI-8226 leukemia) was 1.95 µM. For the same molecule, the TGI (RPMI-8226 leukemia) was 4.89 µM, the GI50 (IGROV1 ovarian) was 1.59 µM and the TGI (IGROV1 ovarian) was 3.58 µM. For the same molecule, the GI50 (786-0 renal) was 1.61 µM, the TGI (786-0 renal) was 3.1 µM and the GI50 (HCT-116 colon) was 1.34 µM. For the same molecule, the TGI (HCT-116 colon) was 2.66 µM, the GI50 (HT29 colon) was 1.29 µM and the TGI (HT29 colon) was 3.71 µM. For the same molecule, the GI50 (HCT-15 colon) was 1.52 µM, the TGI (HCT-15 colon) was 3.15 µM and the GI50 (SF-539 CNS) was 1.66 µM. It also gave a TGI (SF-539 CNS) of 3.07 µM, a GI50 (NCI/ADR-RES ovarian) of 2.34 µM and a TGI (NCI/ADR-RES ovarian) of 6.34 µM. It also gave a GI50 (OVCAR-4 ovarian) of 2.05 µM, a TGI (OVCAR-4 ovarian) of 5.03 µM and a GI50 (UO-31 renal) of 1.51 µM. For the same molecule, the TGI (UO-31 renal) was 3.46 µM, the GI50 (HCC-2998 colon) was 1.76 µM and the TGI (HCC-2998 colon) was 3.34 µM. For the same molecule, the GI50 (NCI-H226 lung) was 1.87 µM, the TGI (NCI-H226 lung) was 4.02 µM and the GI50 (SF-268 CNS) was 2.44 µM. The TGI (SF-268 CNS) was 5.42 µM.
